Structures can show the parent of a compound that is named as a salt.

This test concerns collagen-induced platelet aggregation. Briefly: Inhibition of collagen-induced platelet aggregation in human plasma. Type of test: cell-based.

With `CCNC(=O)[C@H]1C[C@@H](n2cnc3c(N)nc(NCCc4ccc(CCC(=O)O)cc4)nc32)[C@H](O)[C@@H]1O` (relative stereo) [Example 7a, 2-alpha,3-alphadihydroxy-4β-[2-(p-carboxyethyl-phenethylamino)-9-adenyl]-cyclopentane-1β-N-ethylcarboxamide hydrochloride], the IC50 (usually the concentration that inhibits the measured activity by half) is about 1.5 µM.

Values taken from US4954504A, “N9 -cyclopentyl-substituted adenine derivatives having adenosine-2 receptor stimulating activity” (Ciba-Geigy Corporation, priority 1988, dated 1990).
